Like-named read-outs stand apart in the source and are kept apart here. Each block holds one molecule with its values, some of them ahead of it. Peptide text beside a SMILES is read from it. * marks the point of attachment. Dnp = O=[N+]([O-])c1ccc(*)c([N+](=O)[O-])c1; Mca = COc1ccc2c(CC(=O)*)cc(=O)oc2c1
What was measured:
meprin β [1] = conditions: cited from earlier work
meprin α [2] = conditions: cited from earlier work
MMP and ADAM = conditions: cited from earlier work; for effect on MMP and ADAM activity: 200 µM inhibitor
meprin β [3] = target: T1, meprin β (Homo sapiens, UniProt Q16820); assay: Meprin β assay, fluorogenic substrate (Mca)-EDEDED-(K-ε-Dnp), 384 and 1536 well plate formats; assay type: biochemical; conditions: read-out: IC50
T1 sequence (Q16820 62-594 limits assumed): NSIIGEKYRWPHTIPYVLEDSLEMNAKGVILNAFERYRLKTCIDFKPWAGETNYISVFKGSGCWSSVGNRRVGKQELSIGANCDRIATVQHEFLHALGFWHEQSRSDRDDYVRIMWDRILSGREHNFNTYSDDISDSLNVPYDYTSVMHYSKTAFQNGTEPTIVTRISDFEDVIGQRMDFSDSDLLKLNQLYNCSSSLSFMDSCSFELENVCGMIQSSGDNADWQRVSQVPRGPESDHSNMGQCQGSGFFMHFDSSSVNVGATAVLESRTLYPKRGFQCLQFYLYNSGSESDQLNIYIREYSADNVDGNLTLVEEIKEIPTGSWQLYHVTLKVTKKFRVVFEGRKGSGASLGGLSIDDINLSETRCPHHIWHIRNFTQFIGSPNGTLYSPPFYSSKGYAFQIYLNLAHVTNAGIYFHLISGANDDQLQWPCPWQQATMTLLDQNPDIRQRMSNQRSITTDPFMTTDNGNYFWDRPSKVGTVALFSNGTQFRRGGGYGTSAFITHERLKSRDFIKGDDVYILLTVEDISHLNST
Text: (§1) The meprin α and meprin β assays, which utilize the substrates (Mca)-YVADAPK-(K-ε-Dnp) and (Mca)-EDEDED-(K-ε-Dnp), respectively, have been described previously. To enable an ultra-high-throughput screening (uHTS) campaign, we proceeded to miniaturize both assays to 1536 well plate format (wpf). First, we recapitulated the assays in 1536 well plate using reagents at the same concentrations as in 384 well plate format assays by scaling the volume down by the factor of 2.5.
(§2) Both assays followed the same general protocol. A 5 µL measure of 2 × enzyme solution (2.6 and 0.1 nM for meprin α and meprin β, respectively) in assay buffer (50 mM Hepes, 0.01% Brij-35, pH 7.5) was added to solid bottom black 384 low volume plates (Nunc, cat# 264705). Next, 75 nL of test compounds or pharmacological control (actinonin or NFF449) were added to corresponding wells using a 384-pin tool device (V&P Scientific, San Diego, CA, USA). After 30 min incubation at RT, the reactions were started by addition of 5 µL of 2 × solutions of substrates (20 µM, mepin α substrate Mca-YVADAPK-K(Dnp) or meprin β substrate Mca-EDEDED-K(Dnp)). Reactions were incubated at RT for 1 h, after which the fluorescence was measured using the Synergy H4 multimode microplate reader (Biotek Instruments) (λexcitation = 324 nm, λemission = 390 nm).
(§3) Both assays followed the same general protocol. A 2 µL portion of 2 × enzyme solution (1.3 and 0.0125 nM for meprin α and meprin β, respectively) in assay buffer (50 mM Hepes, 0.01% Brij-35, pH 7.5) was added to solid bottom black 1536 low volume plates (Corning cat# 7261). Next, 30 nL of test compounds or pharmacological control (actinonin or NFF449) was added to corresponding wells using a 1536 pin tool device (V&P Scientific, San Diego). After 30 min incubation at RT, the reactions were started by addition of 2 µL of 2x solutions of substrates (20 µM, meprin α substrate Mca-YVADAPK-K(Dnp) or meprin β substrate Mca-EDEDED-K(Dnp)). Reactions were incubated at RT for 1 h, after which the fluorescence was measured using the Viewlux multimode microplate reader (Perkin Elmer) (λexcitation = 324 nm, λemission = 390 nm).
(§4) The miniaturized 1536-well plate format meprin α and meprin β assays were used to screen a collection of approximately 650,000 compounds (The Scripps Research library, La Jolla, CA, USA) on the automated Kalypsys/GNF platform at The Scripps Research Molecular Screening Center (SRMSC, Jupiter, FL, USA: http://hts.florida.scripps.edu/). Both uHTS campaigns were run separately but in a similar manner. Briefly, the first step was the primary screen of all test compounds as singlicates against the meprin α and meprin β target at a final concentration of 7.0 μM. Next, compounds selected as primary hits were cherry-picked and retested in triplicate against the primary screen target and its antitarget (meprin α for the meprin β screening effort, and vice versa) at a same final concentration of 7.0 μM. The additional counter screen assays against related metzincins (MMP-8, MMP-14, and ADAM10) were performed in triplicate at a final concentration of 7.0 μM. The final step was the titration of selected hits as 10-point, 1:3 serial dilutions in both the target and antitarget assay, starting at a final nominal concentration of 17 μM. […] Wells treated with DMSO only were used as negative controls and 0% inhibition reference. […] All data generated during this effort were uploaded to the SRMSC’s institutional screening database (Assay Explorer, Symyx). Sample to background (S/B) ratios, as well as Z and Z’ values, were calculated on a per plate basis as described 14. Curve fitting and resulting IC50 determinations were performed as previously reported.

meprin α [4] = target: T2, meprin α (Homo sapiens, UniProt Q16819); assay: Meprin α assay, fluorogenic substrate (Mca)-YVADAPK-(K-ε-Dnp), 384 and 1536 well plate formats; assay type: biochemical
T2 sequence (Q16819 66-593 limits assumed): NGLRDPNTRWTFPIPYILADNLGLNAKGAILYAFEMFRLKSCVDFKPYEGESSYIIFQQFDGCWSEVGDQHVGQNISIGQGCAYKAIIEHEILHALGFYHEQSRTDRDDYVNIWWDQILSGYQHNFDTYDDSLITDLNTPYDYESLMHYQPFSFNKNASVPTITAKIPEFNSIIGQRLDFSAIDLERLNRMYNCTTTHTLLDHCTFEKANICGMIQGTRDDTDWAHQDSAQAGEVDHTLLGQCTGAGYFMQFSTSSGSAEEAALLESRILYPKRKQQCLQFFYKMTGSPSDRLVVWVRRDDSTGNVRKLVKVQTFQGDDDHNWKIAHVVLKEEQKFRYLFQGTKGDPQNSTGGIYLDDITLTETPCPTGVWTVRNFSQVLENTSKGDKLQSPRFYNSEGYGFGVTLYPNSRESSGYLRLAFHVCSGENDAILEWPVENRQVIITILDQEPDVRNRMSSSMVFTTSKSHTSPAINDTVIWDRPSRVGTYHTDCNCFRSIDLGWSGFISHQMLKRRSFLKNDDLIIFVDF
Text: as §1, §2, §3, §4

meprin α [5] = target: T2, meprin α; assay: Kinetic parameters of meprin α mediated proteolysis of its substrate; assay type: biochemical; conditions: proteolysis by meprin α, 25 °C
Description: Next, we performed substrate optimization to achieve balanced assay conditions defined as [S]/KM = 1 [19]. In order to do that, we first determined kinetic parameters of proteolysis of meprin α and meprin β substrates by the respective enzymes (Figure 4A,B). […] To optimize substrate concentrations, both assays were run for 90 min at three different substrate concentrations (10, 5, and 2.5 µM) which included the concentration at which the assays were recapitulated in 1536 wpf (10 µM for both meprin α and meprin β) and the concentration approximating [S]/KM = 1 condition (2.5 µM). Enzyme concentrations were fixed at 1.3 nM for meprin α and 0.0125 nM for meprin β. […]
Substrate stock solutions were prepared at various concentrations in HTS assay buffer (50 mM Hepes, 0.01% Brij-35, pH 7.5). […] Fluorescence was measured on a multimode microplate reader Synergy H1 (Biotek Instruments, Winooski, VT, USA) using λexcitation = 324 nm and λemission = 393 nm. Rates of hydrolysis were obtained from plots of fluorescence versus time, using data points from only the linear portion of the hydrolysis curve. The slope from these plots was divided by the fluorescence change corresponding to complete hydrolysis and then multiplied by the substrate concentration to obtain rates of hydrolysis in units of μM/s. […]

SMILES: O=C(CN(Cc1ccc(F)c(O)c1F)Cc1ccc(F)c(O)c1F)NO [Compound 8h]
selective against meprin α (meprin β [1]): 27 fold
IC50 (meprin β [1]; read-out: IC50 meprin β): 23 nM
IC50 (meprin α [2]; read-out: IC50 meprin α): 626 nM
effect on MMP and ADAM activity (MMP and ADAM): only limited effect

SMILES: O=C(CN(Cc1ccc(Cl)c(O)c1F)Cc1ccc(Cl)c(O)c1F)NO [Compound 8i]
selective against meprin α (meprin β [1]): 15 fold
IC50 (meprin β [1]; read-out: IC50 meprin β): 24 nM
IC50 (meprin α [2]; read-out: IC50 meprin α): 368 nM
effect on MMP and ADAM activity (MMP and ADAM): only limited effect

SMILES: O=C(CN(Cc1cccc(C(=O)O)c1)S(=O)(=O)c1cccc(C(=O)O)c1)NO [Compound 11g]
selectivity against meprin α (meprin β [1]): 46 fold
IC50 (meprin β [1]; read-out: IC50 meprin β): 60 nM
IC50 (meprin α [2]; read-out: IC50 meprin α): 2740 nM
selectivity against adamalysins and matrixins (MMP and ADAM): good selectivity

SMILES: O=C(CCN(CCc1ccc2c(c1)OCO2)CCc1ccc2c(c1)OCO2)NO [Compound 10e]
IC50 (meprin β [1]; read-out: Meprin β IC50): 7590 nM
selectivity against meprin β (Selectivity Fold) (meprin α [2]): 19 fold
IC50 (meprin α [2]; read-out: Meprin α IC50): 400 nM

IC50 (meprin β [3]; Meprin β 384 wpf): 22000 nM
IC50 (meprin β [3]; Meprin β 1536 wpf): 9750 nM
increased apparent potency (meprin α [4]; 2.5 µM substrate condition): 2 fold
IC50 (meprin α [4]; 1536 wpf, 1.3 nM enzyme, substrate 2.5uM, time 30 min, read-out: Actinonin IC50): 3 nM
IC50 (meprin α [4]; 1536 wpf, 1.3 nM enzyme, substrate 2.5uM, time 60 min, read-out: Actinonin IC50): 3.4 nM
IC50 (meprin α [4]; 1536 wpf, 1.3 nM enzyme, substrate 5uM, time 30 min, read-out: Actinonin IC50): 3.2 nM
IC50 (meprin α [4]; 1536 wpf, 1.3 nM enzyme, substrate 10uM, time 30 min, read-out: Actinonin IC50): 5.4 nM
IC50 (meprin α [4]; 1536 wpf, 1.3 nM enzyme, substrate 10uM, time 60 min, read-out: Actinonin IC50): 6.4 nM
IC50 (meprin α [4]; 1536 wpf, 1.3 nM enzyme, substrate 10uM, time 90 min, read-out: Actinonin IC50): 6.9 nM
IC50 (meprin α [4]; 1536 wpf, enzyme 0.32nM, time 30 min, read-out: Actinonin IC50): 5.18 nM
IC50 (meprin α [4]; 1536 wpf, enzyme 0.32nM, time 60 min, read-out: Actinonin IC50): 5.54 nM
IC50 (meprin α [4]; 1536 wpf, enzyme 0.32nM, time 90 min, read-out: Actinonin IC50): 5.83 nM
IC50 (meprin α [4]; 1536 wpf, enzyme 0.65nM, time 30 min, read-out: Actinonin IC50): 4.11 nM
IC50 (meprin α [4]; 1536 wpf, enzyme 0.65nM, time 60 min, read-out: Actinonin IC50): 4.99 nM
IC50 (meprin α [4]; 1536 wpf, enzyme 0.65nM, time 90 min, read-out: Actinonin IC50): 5.2 nM
IC50 (meprin α [4]; 1536 wpf, enzyme 1.3nM, time 30 min, read-out: Actinonin IC50): 4.84 nM
IC50 (meprin α [4]; 1536 wpf, enzyme 1.3nM, time 60 min, read-out: Actinonin IC50): 5.94 nM
IC50 (meprin α [4]; 1536 wpf, enzyme 1.3nM, time 90 min, read-out: Actinonin IC50): 6.33 nM
IC50 (meprin α [4]; Meprin α 384 wpf, read-out: IC50): 11 nM
IC50 (meprin α [4]; Meprin α 1536 wpf, read-out: IC50): 5.7 nM
IC50 (meprin α [4]; control compound in primary HTS campaign, n = 11 plates, read-out: IC50): 2.9 ± 0.12 nM
SMILES: CCCCC[C@H](CC(=O)NO)C(=O)N[C@H](C(=O)N1CCC[C@H]1CO)C(C)C [Actinonin, actinonin]

SMILES: O=C(CCN(CCc1ccc2c(c1)OCCO2)CCc1ccc2c(c1)OCCO2)NO [Compound 10d]
IC50 (meprin β [1]; read-out: Meprin β IC50): 2950 nM
selectivity against meprin β (Selectivity Fold) (meprin α [2]): 18 fold
IC50 (meprin α [2]; read-out: Meprin α IC50): 160 nM

SMILES: Cc1nc(/N=N/c2cc(S(=O)(=O)O)c3cc([N+](=O)[O-])cc(S(=O)(=O)O)c3c2)c(COP(=O)(O)O)c(C=O)c1O [PPNDS]
Ki (meprin β [1]): 8 nM

SMILES: COc1ccc2c(CC(=O)N[C@@H](Cc3ccc(O)cc3)C(=O)N[C@H](C(=O)N[C@@H](C)C(=O)N[C@@H](CC(=O)O)C(=O)N[C@@H](C)C(=O)N3CCC[C@H]3C(=O)N[C@@H](CCCCN)C(=O)N[C@@H](CCCCNc3ccc([N+](=O)[O-])cc3[N+](=O)[O-])C(N)=O)C(C)C)cc(=O)oc2c1 [meprin α substrate, (Mca)-YVADAPK-(K-ε-Dnp)] (Mca-YVADAPKK(Dnp)-NH2)
Km (meprin α [5]): 2.4 ± 0.3 µM

Reference: paper PMC8000592, “Discovery and Optimization of Selective Inhibitors of Meprin α (Part I)” (Pharmaceuticals, 2021)
